Test results as given in the NIST ThermoML archive (doi:10.1021/je900366m).
Numbers after ± are expanded uncertainties.

Key:
[1] = 298.15 K; 101.33 kPa; Liquid; Pycnometric method
[2] = refractive index (Na D-line) (dimensionless); details: 293.1 K; 101.33 kPa; Liquid; Standard Abbe refractometry

Row | mass density [1] [kg/m3] | refractive index [2] | SMILES
1 | 1025.9 ± 0.4 | 1.422 ± 0.0004 | C1COCCO1 [1,4-dioxane]
2 | 831.8 ± 0.3 | 1.4408 ± 0.0004 | CC=C(C)CCCC(C)(C)O [6-octen-2-ol, 2,6-dimethyl-]
